{"source": "paper PMC10149367", "about": "“The ferroptosis inducing compounds RSL3 and ML162 are not direct inhibitors of GPX4 but of TXNRD1” (Redox Biology, 2023)", "key": {"GPX4 [1]": {"target": "T1, GPX4 (Homo sapiens, UniProt P36969)", "T1 construct": "made in house", "T1 sequence (P36969 1-170 isoform P36969-2)": "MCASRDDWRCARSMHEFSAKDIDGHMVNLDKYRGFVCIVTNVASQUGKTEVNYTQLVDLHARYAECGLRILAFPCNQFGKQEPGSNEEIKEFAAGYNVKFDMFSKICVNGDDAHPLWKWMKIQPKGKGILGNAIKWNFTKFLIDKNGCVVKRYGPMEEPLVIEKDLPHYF", "experiment": "GPX4 activity assay, pure enzyme (NADPH consumption, cumene hydroperoxide)", "type": "biochemical", "conditions": "for IC50: recombinant GPX4, 30 min preincubation, read-out: IC50 GPX4 inhibition", "description": "(§1) Recombinant human proteins—Recombinant human selenoprotein GPX and TXNRD isoenzymes as well as recombinant human GR were cloned, expressed, and purified as described previously [[26], [27], [28]].\n(§2) Biochemical assays—GPX assays were run as previously described [[26], [27], [28]] in a clear medium-binding 96-well SpectraPlates (PerkinElmer). Briefly, 198 μL of 10 nM GPX1 or 200 nM GPX4 were incubated with 2 μL compounds or DMSO in TES buffer (50 mM Tris-HCl, 2 mM EDTA (pH 7.5), 150 mM NaCl) with BSA at room temperature for 30 min. Then, 40 μL of master mix (100 nM GR, 1 mM GSH, 0.5 mM NADPH in TES buffer) was added. To start the reaction, 10 μL of Cumene hydroperoxide ([0.5 mM] in 50% EtOH) was then added. Absorbance at 340 nm was measured using a Tecan Infinite® M Nano microplate reader every 20 s for 30 min. Four replicates were run, unless otherwise stated."}, "GPX1": {"target": "T2, GPX1 (Homo sapiens, UniProt P07203)", "T2 construct": "made in house", "T2 sequence (P07203 1-203)": "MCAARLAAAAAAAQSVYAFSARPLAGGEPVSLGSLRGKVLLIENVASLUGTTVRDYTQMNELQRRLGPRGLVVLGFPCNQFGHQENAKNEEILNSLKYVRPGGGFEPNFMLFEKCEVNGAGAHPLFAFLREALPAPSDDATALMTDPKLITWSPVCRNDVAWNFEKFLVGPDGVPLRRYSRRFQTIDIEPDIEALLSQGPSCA", "experiment": "GPX1 activity assay, pure enzyme (NADPH consumption, cumene hydroperoxide)", "type": "biochemical", "conditions": "for IC50: recombinant GPX1, 30 min preincubation, read-out: IC50 GPX1 inhibition", "description": "as §1, §2"}, "GPX4 [2]": {"test_system": "GPX4", "set-up": "method as in PMID 33812801", "conditions": "cited from earlier work"}, "[3]": {"test_system": "malondialdehyde (MDA) and Ptgs2 mRNA levels", "set-up": "method as in PMID 32732975", "conditions": "hemochromatosis mouse model; reversed by Ferrostatin-1; cited from earlier work"}, "TXNRD1 [4]": {"target": "T3, TXNRD1 (Homo sapiens, UniProt Q16881)", "T3 construct": "made in house", "T3 sequence (Q16881 1-499 isoform Q16881-5)": "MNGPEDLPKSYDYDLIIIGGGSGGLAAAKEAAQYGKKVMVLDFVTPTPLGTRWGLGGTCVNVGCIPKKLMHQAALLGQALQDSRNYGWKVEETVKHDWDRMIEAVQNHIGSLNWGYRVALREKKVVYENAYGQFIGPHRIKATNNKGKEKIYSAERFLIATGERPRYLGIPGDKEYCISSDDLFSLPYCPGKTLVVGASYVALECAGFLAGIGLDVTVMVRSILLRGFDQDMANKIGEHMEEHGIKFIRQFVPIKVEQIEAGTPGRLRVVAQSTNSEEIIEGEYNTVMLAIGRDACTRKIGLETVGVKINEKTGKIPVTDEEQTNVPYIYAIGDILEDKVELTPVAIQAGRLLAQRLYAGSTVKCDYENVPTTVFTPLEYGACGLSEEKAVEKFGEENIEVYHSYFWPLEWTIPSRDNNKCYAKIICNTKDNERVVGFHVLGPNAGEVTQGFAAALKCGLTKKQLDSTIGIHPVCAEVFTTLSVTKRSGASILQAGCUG", "experiment": "TXNRD1 activity assay, pure enzyme (Fig. 1A)", "type": "biochemical", "description": "as §1\n(§3) TXNRD1 selenite and DTNB assays were run as previously described [[26], [27], [28]]. Dose-response curves and IC50s were generated using Excel and GraphPad Prism. Briefly, initial slopes of NADPH consumption were normalized to DMSO controls and IC50s were calculated using log(inhibitor) vs. response—Variable slope (four parameters)."}, "GPX4 [5]": {"target": "T1, GPX4", "experiment": "nano differential scanning fluorimetry, GPX4", "type": "binding", "conditions": "100 μM compound; DMSO control 51.7 °C", "description": "Nano differential scanning fluorimetry—Real-time monitoring of fluorescence emission at 330 nm and 350 nm (excitation wavelength: 280 nm) and backscattering absorbance of GPX4 and TXNRD1 samples in the presence of compound was performed using a NanoTemper Prometheus NT.48 instrument. First, 0.25 mg/mL enzyme was incubated with 100 μM compound or DMSO for 15 min at room temperature. Standard capillaries were used, and temperature was increased from 25 to 95 °C with a ramp rate of 4.0 °C/min. Three biological replicates were carried out for each condition, and their means and standard deviations are depicted."}, "TXNRD1 [6]": {"target": "T3, TXNRD1", "experiment": "TXNRD1 orthogonal assays (selenite reduction, DTNB reduction; Extended Data Fig. 2)", "type": "biochemical", "conditions": "selenite and DTNB assays", "description": "as §3\nSupplementary Data Extended Data Set\n(Extended Data Fig. 2A, left panel). Measuring inhibition of TXNRD1 activity, as a complement to the analyses shown in the main text of this article, we also assessed this using two orthogonal approaches: 1. by the measurement of NADPH consumption coupled to direct selenite reduction of TXNRD1, either through the decrease in absorbance at 340 nm or decrease in its fluorescence, and 2. measuring TXNRD1-catalyzed DTNB reduction based upon quantification of TNB- anions absorbing at 412 nm as formed upon TXNRD1-catalyzed reduction of the disulfide in DTNB. Using these assays, we could confirm that the RSL3 inhibition of TXNRD1 was not an artifact due to specific assay conditions, with both RSL3 and ML162 showing complete inhibition of TXNRD1 at the higher end of the concentrations assessed here (2.8 ± 0.9% and 5.8 ± 0.9% remaining activity with just 5 µM of RSL3 and […]\nML162 (Extended Data Fig. 2A, middle and right panels, and 2B). […]\nany inhibition of TXNRD1 in any of the assays. […]\nµM, respectively (Extended Data Fig. 2B). Like with TRi-1 and TRi-2, inhibition of both TXNRD1 and TXNRD2 by RSL3 and ML162 was essentially dependent on pre-reduction of the enzyme by NADPH in order to yield potent and complete inactivation. Both compounds […]\nML162 in the absence of NADPH and subsequently assayed for activity; however, this could also be due to carry-over of the compounds to the NADPH dependent enzyme activity assay.\nBecause the reduction step with NADPH reduces a selenenylsulfide at the C-terminal active […]\nof the selenolate at the C-terminal active site of the NADPH-reduced enzyme. That some […]\ncompounds might also bind some other additional site(s) in the enzyme. That notion is further strengthened by the fact that thermostability of TXNRD1 was also affected at higher concentrations of compounds when incubated with the enzyme in the absence of NADPH (see […]\ndose-response curve fit to the average of n = 3 technical replicates. […]\nwell (middle left panel) and 1536-well format (not shown), as well as a DTNB assay (middle […]\nTXNRD2 by RSL3 (left panel), ML162 (middle left panel), TRi-1 (middle right panel), and TRi-2 (right panel) are modulated by NADPH pre-treatment; Data are presented as mean ± s.d.; Four-parameter dose-response curve fit to the average of n = 3 technical replicates (n = 2"}, "A549 cells": {"test_system": "A549 cells", "experiment": "A549 viability in cellular TXNRD1 (RX1) experiments", "conditions": "A549, 4 h, Extended Data Fig. 3A", "procedure": "Cellular TXNRD1 assay—20,000 or 10,000 A549 cells (for 4 h or 12 h and 24 h compound incubation respectively) were seeded in 96-well plates (microplates, 96 well, F-bottom, black, clear bottom, ViewPlateTM-96 F TC, PerkinElmer), in a total volume of 100 μL full DMEM (supplemented with 10% FBS and 100 nM Na2SeO3). The cells were incubated for 16 h at 37 °C and 5% CO2, followed by media change and addition of indicated compounds at respective concentrations (0.1 μM–20 μM), including 0.6% DMSO. The cells were subsequently incubated for the respective mentioned time, washed once with full DMEM and fresh, full DMEM, containing 75 μM RX1 and 0.75% DMSO, was added and the first fluorescent measurement was conducted immediately (timepoint = 0) using a Tecan Infinite M200 plate reader (ex/em 355/520). To follow the kinetic activation of RX1, a fluorescent measurement was done every hour for 6 h. Between measurements, cells were stored at 37 °C and 5% CO2. As a control, cells treated with compounds, but not with RX1, just the respective DMSO content, were used for background fluorescent. To determine how the cells were viable throughout the RX1 assay, the control cells were used for a viability measurement, using CellTiter-Glo® Luminescent Cell Viability Assay, after the final fluorescent measurement. For final data analysis, raw data was processed using Microsoft Excel and GraphPad Prism. In brief, the slope of the activated RX1 fluorescence increase was in each case calculated and normalized, using the viability measurement of the control cells.\nExtended Data Figure 3: A549 cytotoxicity in cellular TXNRD1 experiments following final\nA) Cell viability following 4-hour incubation with\ncompounds; B) Viability following 12-hour incubation with compounds; C) Viability\nfollowing 24 -hour incubation with compounds. The cell viability in was in each case measured\nusing the Cell Quanti-BlueTM Cell Viability Assay Kit and the data are presented as mean ±\ns.d. of n = 3 biological replicates, each containing n = 3 technical replicates."}, "TXNRD1 [7]": {"target": "T4, TXNRD1 (Homo sapiens, UniProt Q16881)", "T4 construct": "RX1 probe that specifically reports upon TXNRD1 enzymatic activity in live cells; endogenous in cells; host or cells: A549", "T4 sequence (Q16881 151-649 limits assumed)": "T3 sequence (Q16881 1-499 isoform Q16881-5)", "experiment": "Cellular TXNRD1 assay with RX1 probe in A549 cells", "type": "cell-based", "procedure": "Cellular TXNRD1 assay—20,000 or 10,000 A549 cells (for 4 h or 12 h and 24 h compound incubation respectively) were seeded in 96-well plates (microplates, 96 well, F-bottom, black, clear bottom, ViewPlateTM-96 F TC, PerkinElmer), in a total volume of 100 μL full DMEM (supplemented with 10% FBS and 100 nM Na2SeO3). […] The cells were subsequently incubated for the respective mentioned time, washed once with full DMEM and fresh, full DMEM, containing 75 μM RX1 and 0.75% DMSO, was added and the first fluorescent measurement was conducted immediately (timepoint = 0) using a Tecan Infinite M200 plate reader (ex/em 355/520). To follow the kinetic activation of RX1, a fluorescent measurement was done every hour for 6 h. Between measurements, cells were stored at 37 °C and 5% CO2. As a control, cells treated with compounds, but not with RX1, just the respective DMSO content, were used for background fluorescent. To determine how the cells were viable throughout the RX1 assay, the control cells were used for a viability measurement, using CellTiter-Glo® Luminescent Cell Viability Assay, after the final fluorescent measurement. For final data analysis, raw data was processed using Microsoft Excel and GraphPad Prism. In brief, the slope of the activated RX1 fluorescence increase was in each case calculated and normalized, using the viability measurement of the control cells."}, "[8]": {"conditions": "recombinant selenoprotein, pure enzyme system"}}, "data": [{"smiles": "O=C(O)CC(S)C(=O)O", "note": "(centres unmarked) [mercaptosuccinic acid]", "values": [{"measurement": "IC50", "setting": "GPX4 [1]", "value": "< 10", "unit": "µM"}, {"measurement": "IC50", "setting": "GPX1", "value": "< 10", "unit": "µM"}]}, {"smiles": "CC(=O)OC[C@H]1O[C@@H]([S-])[C@H](OC(C)=O)[C@@H](OC(C)=O)[C@@H]1OC(C)=O.CCP(CC)CC.[Au+]", "note": "[Auranofin, auranofin]", "values": [{"measurement": "Effect on GPX4 expression levels", "setting": "GPX4 [2]", "value": "decrease GPX4 expression levels"}, {"measurement": "Hepatic malondialdehyde (MDA) and Ptgs2 mRNA levels", "setting": "[3]", "value": "increase in hepatic malondialdehyde (MDA)"}, {"measurement": "IC50", "setting": "TXNRD1 [4]; recombinant TXNRD1, Fig. 1A assay conditions, read-out: IC50 TXNRD1 inhibition", "value": "~19", "unit": "µM"}, {"measurement": "IC50", "setting": "GPX1", "value": 4.7, "unit": "µM"}]}, {"smiles": "Cc1onc(C(=O)N2CCN(C(c3ccc(Cl)cc3)c3ccc(Cl)cc3)CC2)c1[N+](=O)[O-]", "note": "[ML210]", "values": [{"measurement": "Tm of GPX4 (nanoDSF)", "setting": "GPX4 [5]", "value": 52.1, "unit": "°C"}, {"measurement": "Inhibition of TXNRD1 in any of the assays", "setting": "TXNRD1 [6]", "value": "did not show any inhibition of TXNRD1"}, {"measurement": "Inhibition of GPX4", "setting": "GPX4 [1]; [8]", "value": "neither RSL3, ML162, nor ML210 inhibited either GPX isoenzyme"}, {"measurement": "Effect on cell viability at 4 h", "setting": "A549 cells", "value": "no overt effects on viability"}, {"measurement": "Inhibition of GPX1", "setting": "GPX1; [8]", "value": "neither RSL3, ML162, nor ML210 inhibited either GPX isoenzyme"}, {"measurement": "Effect on cellular TXNRD1 activity (RX1)", "setting": "TXNRD1 [7]; A549, 20 μM", "value": "slightly suppressed TXNRD1 activity"}, {"measurement": "Effect on cellular TXNRD1 activity (RX1)", "setting": "TXNRD1 [7]; A549, 0.5–1 μM", "value": "tendency to increase the TXNRD1 activity"}, {"measurement": "Effect on cellular TXNRD1 activity (RX1) at 4 h", "setting": "TXNRD1 [7]; A549, 4 h incubation, RSL3 and ML162 at 1 μM or higher", "value": "increase in TXNRD1 activity"}]}, {"smiles": "[Cl][Hg][Cl]", "note": "[mercuric chloride]", "values": [{"measurement": "IC50", "setting": "GPX4 [1]", "value": "< 10", "unit": "µM"}, {"measurement": "IC50", "setting": "GPX1", "value": "< 10", "unit": "µM"}]}, {"smiles": "OC[C@H]1O[C@H]([S-])[C@H](O)[C@@H](O)[C@@H]1O.[Au+]", "note": "[aurothioglucose]", "values": [{"measurement": "Specificity among GPX1, GPX4, GR and TXNRD1", "setting": "TXNRD1 [4]; pure enzyme systems, Fig. 1A lower panels", "value": "only showed TXNRD1 inhibition"}]}]}
